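Cells were grown in 96-well plates and exposed to each compound for 48 hours at five concentrations; endpoints were interpolated linearly between bracketing concentrations, or set to the highest concentration if not reached. The concentration for 50% growth inhibition is given as GI50.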 Activity calls are given as the source filed them. No stated cut-off is given here; in the data, active = GI50 up to about 1.1 µM and inactive = higher.
Tests used:
Assay in all cases: NCI tumour cell line growth inhibition, 48 h
SK-MEL-2 = system: SK-MEL-2
SF-295 = system: SF-295
HL-60 = system: HL-60
HOP-62 = system: HOP-62
UACC-62 = system: UACC-62
HT-29 = system: HT-29
HOP-92 = system: HOP-92
SNB-75 = system: SNB-75
UACC-257 = system: UACC-257
OVCAR-3 = system: OVCAR-3
SK-MEL-28 = system: SK-MEL-28
KM12 = system: KM12
HCC 2998 = system: HCC 2998
SN12C = system: SN12C
MDA-MB-435 = system: MDA-MB-435
M14 = system: M14
MCF7 = system: MCF7
SF-539 = system: SF-539
OVCAR-8 = system: OVCAR-8

Measured: GI50

O=C1C=CC(=O)c2c1ccc1c3ccccc3n(CCCCCCCCCCCCn3c4ccccc4c4ccc5c(c43)C(=O)C=CC5=O)c21
inactive: SK-MEL-2 > 100 µM | SF-295 > 100 µM | HL-60 46.7 µM | HOP-62 > 85.5 µM | UACC-62 > 100 µM | HT-29 > 100 µM | HOP-92 > 100 µM | SNB-75 > 100 µM | UACC-257 > 100 µM | OVCAR-3 > 100 µM | SK-MEL-28 > 100 µM | KM12 > 100 µM | HCC 2998 > 46.5 µM | SN12C > 100 µM | MDA-MB-435 > 100 µM | M14 > 100 µM | MCF7 > 100 µM | SF-539 > 100 µM | OVCAR-8 > 100 µM

O=C1CC(c2cccc(Cl)c2)n2cccc21 (stereo unspecified)
inactive: SK-MEL-2 37.8 µM | SF-295 > 100 µM | HL-60 32.8 µM | HOP-62 > 100 µM | UACC-62 > 100 µM | HT-29 > 100 µM | HOP-92 65.3 µM | SNB-75 47.8 µM | UACC-257 > 100 µM | OVCAR-3 > 100 µM | SK-MEL-28 > 100 µM | KM12 77.3 µM | HCC 2998 88.7 µM | SN12C > 100 µM | MDA-MB-435 > 100 µM | M14 > 100 µM | MCF7 > 100 µM | SF-539 > 100 µM | OVCAR-8 > 100 µM

CCOC(=O)[C@H](CO)NC1=C(Cl)C(=O)c2c(O)ccc(O)c2C1=O
inactive: SK-MEL-2 > 10 µM | SF-295 > 10 µM | HL-60 > 10 µM | HOP-62 > 10 µM | UACC-62 > 10 µM | HT-29 5.33 µM | HOP-92 > 10 µM | SNB-75 > 10 µM | UACC-257 > 10 µM | OVCAR-3 > 10 µM | SK-MEL-28 > 10 µM | KM12 > 10 µM | HCC 2998 > 10 µM | SN12C > 10 µM | MDA-MB-435 > 10 µM | M14 > 10 µM | MCF7 3.21 µM | SF-539 > 10 µM | OVCAR-8 > 10 µM

CCOC(=O)/C(C#N)=C/c1ccc2c(c1)CC1(C2)Cc2cc(CC)c(C(C)O)cc2C1 (stereo unspecified)
inactive: SK-MEL-2 7.21 µM | SF-295 15.7 µM | HL-60 3.03 µM | HOP-62 14.2 µM | UACC-62 7.83 µM | HT-29 19.1 µM | HOP-92 16.5 µM | SNB-75 8.38 µM | UACC-257 15.8 µM | OVCAR-3 8.04 µM | SK-MEL-28 12.8 µM | KM12 19.6 µM | HCC 2998 16.3 µM | SN12C 14.2 µM | MDA-MB-435 2.14 µM | M14 5.32 µM | MCF7 5.18 µM | SF-539 9.82 µM | OVCAR-8 15 µM

CCOC(=O)c1cc(-c2ccc(OC)c(OC)c2)c[nH]1
inactive: SK-MEL-2 > 10 µM | SF-295 > 10 µM | HL-60 > 10 µM | HOP-62 > 10 µM | UACC-62 > 10 µM | HT-29 > 10 µM | HOP-92 > 10 µM | SNB-75 5.08 µM | UACC-257 > 10 µM | OVCAR-3 > 10 µM | SK-MEL-28 > 10 µM | KM12 > 10 µM | HCC 2998 > 10 µM | SN12C > 10 µM | MDA-MB-435 > 10 µM | M14 > 10 µM | MCF7 > 10 µM | SF-539 > 10 µM | OVCAR-8 > 10 µM

CCCCC1Cc2cc(O)ccc2-c2n1c1cc(O)ccc1[n+]2C.CCCCC1Cc2cc(O)ccc2-c2n1c1ccc(O)cc1[n+]2C (stereo unspecified)
inactive: SK-MEL-2 32.7 µM | SF-295 4.82 µM | HL-60 26.1 µM | HOP-62 43.8 µM | UACC-62 24.4 µM | HT-29 41.7 µM | HOP-92 9.55 µM | SNB-75 12.7 µM | UACC-257 11.6 µM | OVCAR-3 10.7 µM | SK-MEL-28 6.64 µM | KM12 28.2 µM | HCC 2998 28.2 µM | SN12C 5.58 µM | MDA-MB-435 19 µM | M14 37.9 µM | MCF7 19 µM | SF-539 40.3 µM | OVCAR-8 28.3 µM

FC(F)(F)c1ccc(C2ON=C(c3ccccc3)N2C23CC4CC(CC(C4)C2)C3)cc1 (stereo unspecified)
inactive: SK-MEL-2 > 10 µM | SF-295 > 10 µM | HL-60 > 10 µM | HOP-62 > 10 µM | UACC-62 > 10 µM | HT-29 > 10 µM | HOP-92 > 10 µM | SNB-75 > 10 µM | UACC-257 > 10 µM | OVCAR-3 > 10 µM | SK-MEL-28 > 10 µM | KM12 > 10 µM | HCC 2998 > 10 µM | SN12C > 10 µM | MDA-MB-435 > 10 µM | M14 > 10 µM | MCF7 1.39 µM | SF-539 > 10 µM | OVCAR-8 > 10 µM

CC(=O)c1c2c(c3ccccc3c1O)O[C@@H]1OCC[C@H]21
inactive: SK-MEL-2 > 100 µM | SF-295 > 100 µM | HL-60 > 100 µM | HOP-62 > 100 µM | UACC-62 > 100 µM | HT-29 > 100 µM | HOP-92 > 100 µM | SNB-75 11.5 µM | UACC-257 > 100 µM | OVCAR-3 > 100 µM | SK-MEL-28 > 100 µM | KM12 > 100 µM | HCC 2998 > 100 µM | SN12C > 100 µM | MDA-MB-435 > 100 µM | M14 > 100 µM | MCF7 30 µM | SF-539 > 100 µM | OVCAR-8 > 100 µM

CC(C)(C)OC(=O)N(CCCCN(CCCNC(=O)C(F)(F)F)C(=O)OC(C)(C)C)CCCNC(=O)C(F)(F)F
inactive: SK-MEL-2 > 100 µM | SF-295 > 100 µM | HL-60 60.3 µM | HOP-62 38.7 µM | UACC-62 > 100 µM | HT-29 > 100 µM | HOP-92 > 100 µM | SNB-75 > 100 µM | UACC-257 > 100 µM | OVCAR-3 45.3 µM | SK-MEL-28 > 100 µM | KM12 > 100 µM | HCC 2998 > 100 µM | SN12C > 100 µM | MDA-MB-435 > 100 µM | M14 > 100 µM | MCF7 > 100 µM | SF-539 > 100 µM | OVCAR-8 > 100 µM

CC(=O)OCC1OC(Nn2c(=O)[nH]c3ccccc3c2=O)C(OC(C)=O)C(OC(C)=O)C1OC(C)=O (stereo unspecified)
inactive: SK-MEL-2 > 100 µM | SF-295 > 100 µM | HL-60 > 100 µM | HOP-62 > 100 µM | UACC-62 > 100 µM | HT-29 > 100 µM | HOP-92 89.1 µM | SNB-75 > 100 µM | UACC-257 35.3 µM | OVCAR-3 > 100 µM | SK-MEL-28 > 100 µM | KM12 > 100 µM | HCC 2998 15 µM | SN12C > 100 µM | MDA-MB-435 > 100 µM | M14 > 100 µM | MCF7 > 100 µM | SF-539 > 100 µM | OVCAR-8 > 100 µM

O=C(OC(/C=C/c1ccccc1)P1(=O)N(Cc2ccccc2)[C@@H]2CCCC[C@H]2N1Cc1ccccc1)c1ccccc1 (stereo partly specified)
inactive: SK-MEL-2 2.25 µM | SF-295 4.09 µM | HL-60 2.79 µM | HOP-62 5.38 µM | UACC-62 5.3 µM | HT-29 3.4 µM | HOP-92 2.08 µM | SNB-75 3.18 µM | UACC-257 3.07 µM | OVCAR-3 3.93 µM | SK-MEL-28 9.82 µM | KM12 3.57 µM | HCC 2998 4.9 µM | SN12C 3.03 µM | MDA-MB-435 3.66 µM | M14 3.69 µM | MCF7 3.52 µM | SF-539 3.17 µM | OVCAR-8 3.29 µM

C#CCn1c(=O)ccn(/C(=C\C(=O)OCC)C(=O)OCC)c1=O
inactive: SK-MEL-2 16.4 µM | SF-295 22.9 µM | HL-60 2.93 µM | HOP-62 23.5 µM | UACC-62 14.2 µM | HT-29 2.04 µM | HOP-92 2.16 µM | SNB-75 20 µM | UACC-257 15.3 µM | OVCAR-3 5.61 µM | SK-MEL-28 11.7 µM | KM12 22.8 µM | HCC 2998 19.9 µM | SN12C 8.89 µM | MDA-MB-435 7.33 µM | M14 4.32 µM | MCF7 2.87 µM | SF-539 1.86 µM | OVCAR-8 2.31 µM

C=C(C)[C@H]1[C@@H]2OC(=O)[C@H]1[C@]1(O)C[C@H]3OC34C(=O)O[C@H]2[C@@]41C.CC(C)(O)[C@H]1[C@@H]2OC(=O)[C@H]1[C@]1(O)C[C@H]3OC34C(=O)O[C@H]2[C@@]41C (stereo partly specified)
inactive: SK-MEL-2 > 100 µM | SF-295 > 100 µM | HL-60 > 100 µM | HOP-62 > 100 µM | UACC-62 > 100 µM | HT-29 > 100 µM | HOP-92 > 100 µM | SNB-75 > 100 µM | UACC-257 > 100 µM | OVCAR-3 > 100 µM | SK-MEL-28 > 100 µM | KM12 > 100 µM | HCC 2998 > 100 µM | SN12C > 100 µM | MDA-MB-435 > 100 µM | M14 > 100 µM | MCF7 > 100 µM | SF-539 > 100 µM | OVCAR-8 > 100 µM

CCc1cccc(C(C)(C)C)c1NC(=S)N/C=C(/C#N)C(N)=O
inactive: SK-MEL-2 > 100 µM | SF-295 > 100 µM | HL-60 93.1 µM | HOP-62 > 100 µM | UACC-62 > 100 µM | HT-29 > 100 µM | HOP-92 14 µM | SNB-75 30.9 µM | UACC-257 > 100 µM | OVCAR-3 92.7 µM | SK-MEL-28 > 100 µM | KM12 > 100 µM | HCC 2998 > 100 µM | SN12C > 100 µM | MDA-MB-435 > 100 µM | M14 > 100 µM | MCF7 > 100 µM | SF-539 > 100 µM | OVCAR-8 > 100 µM

— ChEMBL document CHEMBL1201862, “PubChem BioAssay data set” (2004)
